Experimental data as given in US8987314B2, “Amide, urea or sulfone amide linked benzothiazole inhibitors of endothelial lipase” (Bristol-Myers Squibb Company, priority 2012, dated 2015).
Read-outs that look alike come from different tables or passages of the source.

Legend:
hepatic lipase (HL) = hepatic lipase (HL) (Homo sapiens (Human), UniProt P11150); test: HL assay: hepatic lipase activity with fluorescent substrate A10070 in DMPG vesicles; type: biochemical
Protocol: (§1) Endothelial lipase (EL) and hepatic lipase (HL) activities were measured using a fluorescent substrate, A10070, (Invitrogen, CA) doped into an artificial vesicle containing DMPG (Avanti Polar Lipids) as the excipient. Vesicles were prepared by combining 571 μL of 29 mM DMPG in a 1:1 mixture of MeOH and CHCl3 with 2000 μL of 1 mM A10070 in a 1:1 mixture of MeOH and CHCl3. The mixture was dried under nitrogen in multiple vials then resuspended in 20 mL total volume of 50 mM HEPES pH 8.0 buffer containing 50 mM NaCl and 0.2 mM EDTA. The sample was allowed to sit at room temperature for 15 min and then was sonicated 3×4 mins on ice with a Branson Sonicator using duty cycle 1. This preparation provides vesicles with a mole fraction of 0.11 for the FRET substrate.
(§2) The enzymatic assay was measured using 384-well white Optiplates. Each well contained 20 μL of assay buffer (50 mM HEPES pH 8.0, 50 mM NaCl and 1 mM CaCl2) and 0.25 μL of a DMSO solution containing a compound of interest. EL or HL (10 μL) was added and allowed to incubate with the compound for 30 min at 37° C. The source of EL was conditioned media obtained from HT-1080 cells that were transformed using RAGE technology (Athersys) to overexpress endogenous EL, and HL was partially purified from conditioned media obtained from COS cells overexpressing HL. The reaction was started by the addition of 10 μL of a 1:10 dilution of vesicles. The final total reaction volume was […]. The reaction rates were measured on a Gemini plate reader with an excitation wavelength of 490 nm and an emission wavelength of 530 nm. Readings were taken over a period of 60 minutes, and the slope between 300 and 900 secs of the readout was used to calculate the rate of the reaction.

Endothelial lipase (EL) = Endothelial lipase (EL) (Homo sapiens (Human), UniProt Q9Y5X9); test: EL assay: endothelial lipase activity with fluorescent substrate A10070 in DMPG vesicles; type: biochemical
Sequence of Endothelial lipase (EL) (Q9Y5X9 21-500): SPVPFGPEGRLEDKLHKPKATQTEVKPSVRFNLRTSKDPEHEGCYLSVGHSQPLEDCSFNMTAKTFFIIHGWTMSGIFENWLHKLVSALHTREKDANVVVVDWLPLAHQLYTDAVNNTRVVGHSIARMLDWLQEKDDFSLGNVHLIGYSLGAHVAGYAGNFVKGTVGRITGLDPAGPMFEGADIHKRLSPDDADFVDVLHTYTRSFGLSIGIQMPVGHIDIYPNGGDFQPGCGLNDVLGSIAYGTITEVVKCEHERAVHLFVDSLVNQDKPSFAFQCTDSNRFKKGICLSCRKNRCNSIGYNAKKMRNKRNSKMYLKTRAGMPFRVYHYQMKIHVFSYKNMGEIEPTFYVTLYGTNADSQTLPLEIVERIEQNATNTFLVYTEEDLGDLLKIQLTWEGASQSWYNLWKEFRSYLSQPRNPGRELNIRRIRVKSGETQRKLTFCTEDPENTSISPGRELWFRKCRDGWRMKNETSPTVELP
Protocol: as §1, §2

[1] = EL from conditioned media of HT-1080 cells, 30 min incubation with compound at 37° C., A10070/DMPG vesicles

Sequence of hepatic lipase (HL) (P11150 23-499, species assumed): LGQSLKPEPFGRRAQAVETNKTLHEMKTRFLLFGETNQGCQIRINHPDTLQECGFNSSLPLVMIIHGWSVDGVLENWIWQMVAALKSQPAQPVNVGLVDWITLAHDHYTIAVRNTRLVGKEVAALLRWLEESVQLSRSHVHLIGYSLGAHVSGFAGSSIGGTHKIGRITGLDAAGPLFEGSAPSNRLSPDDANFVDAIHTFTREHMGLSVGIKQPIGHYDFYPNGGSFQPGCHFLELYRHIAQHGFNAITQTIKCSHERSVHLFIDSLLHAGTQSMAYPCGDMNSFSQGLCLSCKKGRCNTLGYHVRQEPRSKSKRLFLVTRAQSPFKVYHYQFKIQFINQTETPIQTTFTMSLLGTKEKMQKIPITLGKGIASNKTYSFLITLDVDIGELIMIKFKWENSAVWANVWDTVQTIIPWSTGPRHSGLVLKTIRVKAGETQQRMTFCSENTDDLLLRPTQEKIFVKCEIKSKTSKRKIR

| Molecule | IC50 (hepatic lipase (HL)) [nM] | IC50 (Endothelial lipase (EL)) [nM] | IC50 (Endothelial lipase (EL); [1]) [nM] | IC50 (hepatic lipase (HL); HL partially purified from conditioned media of COS cells, 30 min incubation with compound at 37° C., A10070/DMPG vesicles) [nM] |
| --- | --- | --- | --- | --- |
| 2-[6-(2-fluorophenyl)-1,3- benzothiazol-2-yl]-N-(2- sulfamoylethyl)-2-(3,3,3- trifluoropropanesulfonyl)a- cetamide [Example B307] | 1.5 | 3 |  |  |
| 2-[6-(3-fluoro-2-hydroxy- pyridin-4-yl)-1,3- benzothiazol-2-yl]-N-(2- sulfamoylethyl)-2-{[4- (trifluoromethoxy)phen- yl]methanesulfonyl}a- cetamide [Example B376] | 4700 | 7.1 |  |  |
| CS(=O)(=O)C(C(=O)NCCS(=O)(=O)Nc1ccccc1)c1nc2ccc(-c3ccnc(F)c3)cc2s1 (stereo not drawn) [Example B24, 2-(6-(2-fluoro-4-pyridinyl)-1,3-benzothiazol-2-yl)-2-(methylsulfonyl)-N-(2-(phenylsulfamoyl)ethyl)acetamide] |  |  | 35 |  |
| NS(=O)(=O)CCNC(=O)C(c1nc2c(F)cc(-c3ccccc3)cc2s1)S(=O)(=O)CCC(F)(F)F (stereo not drawn) [Example B26, 2-(4-Fluoro-6-phenylbenzo[d]thiazol-2-yl)-N-(2-sulfamoylethyl)-2-((3,3,3-trifluoropropyl)sulfonyl)acetamide] |  |  | < 10 |  |
| NC(=O)c1ccc(-c2cc3sc(C(C(=O)N[C@@H]4CCNC4=O)S(=O)(=O)Cc4ccccc4)nc3cc2F)cc1 (stereo partly drawn) [Example B27, 4-(2-(1-(benzylsulfonyl)-2-oxo-2-(((3R)-2-oxo-3-pyrrolidinyl)amino)ethyl)-5-fluoro-1,3-benzothiazol-6-yl)benzamide] |  |  | 93 |  |
| Cc1nnc(CNC(=O)C(c2nc3cc(C)c(-c4ccccc4)cc3s2)S(=O)(=O)Cc2ccccc2)o1 (stereo not drawn) [Example B28, 2-(benzylsulfonyl)-N-((5-methyl-1,3,4-oxadiazol-2-yl)methyl)-2-(5-methyl-6-phenyl-1,3-benzothiazol-2-yl)acetamide] |  |  | 12 |  |
| CS(=O)(=O)C(C(=O)NCCS(=O)(=O)NCC(F)(F)F)c1nc2ccc(-c3ccnc(F)c3)cc2s1 (stereo not drawn) [Example B30, 2-(6-(2-Fluoro-4-pyridinyl)-1,3-benzothiazol-2-yl)-2-(methylsulfonyl)-N-(2-((2,2,2-trifluoroethyl)sulfamoyl)ethyl)acetamide] |  |  | 277 |  |
| CC(C)(C)NC(=O)c1ccc(-c2ccc3nc(C(C(=O)NCCS(N)(=O)=O)S(C)(=O)=O)sc3c2)cc1 (stereo not drawn) [Example B31, N-tert-Butyl-4-(2-(1-(methylsulfonyl)-2-oxo-2-((2-sulfamoylethyl)amino)ethyl)-1,3-benzothiazol-6-yl)benzamide] |  |  | < 10 | 257 |
| CS(=O)(=O)C(C(=O)NCCS(N)(=O)=O)c1nc2ccc(-c3ccc(C(=O)N4CCOCC4)c(Cl)c3)cc2s1 (stereo not drawn) [Example B32, 2-(6-(3-chloro-4-(4-morpholinylcarbonyl)phenyl)-1,3-benzothiazol-2-yl)-2-(methylsulfonyl)-N-(2-sulfamoylethyl)acetamide] | 923 | < 10 |  |  |
| Cc1cc(-c2ccc3nc(C(C(=O)NCCS(N)(=O)=O)S(C)(=O)=O)sc3c2)cnc1F (stereo not drawn) [Example B33, 2-(6-(6-fluoro-5-methyl-3-pyridinyl)-1,3-benzothiazol-2-yl)-2-(methylsulfonyl)-N-(2-sulfamoylethyl)acetamide] | 22 | 14 |  |  |
| CS(=O)(=O)C(C(=O)NCCS(N)(=O)=O)c1nc2ccc(-c3cnn(CCN4CCOCC4)c3)cc2s1 (stereo not drawn) [Example B34, 2-(methylsulfonyl)-2-(6-(1-(2-(4-morpholinyl)ethyl)-1H-pyrazol-4-yl)-1,3-benzothiazol-2-yl)-N-(2-sulfamoylethyl)acetamide] | 313 | < 10 |  |  |
| COCCNC(=O)c1ccc(-c2ccc3nc(C(C(=O)NCCS(N)(=O)=O)S(C)(=O)=O)sc3c2)cc1 (stereo not drawn) [Example B35, N-(2-methoxyethyl)-4-(2-{1-(methylsulfonyl)-2-oxo-2-[(2-sulfamoylethyl)a-mino]ethyl}-1,3-benzothiazol-6-yl)ben-zamide] | 43 | < 10 |  |  |
| CS(=O)(=O)C(C(=O)NCCS(N)(=O)=O)c1nc2ccc(-c3ccc(F)cc3)cc2s1 (stereo not drawn) [Example B36, 2-(6-(4-fluorophenyl)-1,3-benzothiazol-2-yl)-2-(methylsulfonyl)-N-(2-sulfamoylethyl)acetamide] | < 10 | < 10 |  |  |
| CS(=O)(=O)C(C(=O)NCCS(N)(=O)=O)c1nc2ccc(-c3cccc(F)c3)cc2s1 (stereo not drawn) [Example B37, 2-(6-(3-fluorophenyl)-1,3-benzothiazol-2-yl)-2-(methylsulfonyl)-N-(2-sulfamoylethyl)acetamide] | < 10 | < 10 |  |  |
| CS(=O)(=O)C(C(=O)NCCS(N)(=O)=O)c1nc2ccc(-c3ccc4c(c3)OCO4)cc2s1 (stereo not drawn) [Example B38, 2-(6-(1,3-benzodioxol-5-yl)-1,3-benzothiazol-2-yl)-2-(methylsulfonyl)-N-(2-sulfamoylethyl)acetamide] | < 10 | < 10 |  |  |
| CS(=O)(=O)C(C(=O)NCCS(N)(=O)=O)c1nc2ccc(-c3ccc(OC(F)(F)F)cc3)cc2s1 (stereo not drawn) [Example B39, 2-(methylsulfonyl)-N-(2-sulfamoylethyl)-2-(6-(4-(trifluoromethoxy)phenyl)-1,3-benzothiazol-2-yl)acetamide] | < 10 | < 10 |  |  |
| CS(=O)(=O)C(C(=O)NCCS(N)(=O)=O)c1nc2ccc(-c3ccc(OCCN4CCCCC4)cc3)cc2s1 (stereo not drawn) [Example B42, 2-(methylsulfonyl)-2-(6-(4-(2-(1-piperidinyl)ethoxy)phen-yl)-1,3-benzothiazol-2-yl)-N-(2-sulfamoylethyl)a-cetamide] | 10 | < 10 |  |  |
| C=CCC(C(=O)NCCS(N)(=O)=O)c1nc2ccc(-c3ccccc3)cc2s1 (stereo not drawn) [Reference 1, 2-(6-Phenyl-1,3-benzothiazol-2-yl)-N-(2-sulfamoylethyl)-4-pentenamide, reference compound] |  | 9400 |  |  |

The next lines start with the values.

| IC50 (hepatic lipase (HL)) [nM] | IC50 (Endothelial lipase (EL)) [nM] | IC50 (Endothelial lipase (EL); [1]) [nM] | IC50 (hepatic lipase (HL); HL partially purified from conditioned media of COS cells, 30 min incubation with compound at 37° C., A10070/DMPG vesicles) [nM] | Molecule |
| --- | --- | --- | --- | --- |
| 19 | < 10 |  |  | CS(=O)(=O)C(C(=O)NCCS(N)(=O)=O)c1nc2ccc(-c3ccc(C(=O)NCCO)cc3)cc2s1 (stereo not drawn) [Example B40, N-(2-hydroxyethyl)-4-(2-(1-(methylsulfonyl)-2-oxo-2-((2-sulfamoylethyl)a-mino)ethyl)-1,3-benzothiazol-6-yl)ben-zamide] |
| 17 | < 10 |  |  | CS(=O)(=O)C(C(=O)NCCS(N)(=O)=O)c1nc2ccc(-c3ccc(C(=O)NCC(F)(F)F)cc3)cc2s1 (stereo not drawn) [Example B41, 4-(2-(1-(methylsulfonyl)-2-oxo-2-((2-sulfamoylethyl)a-mino)ethyl)-1,3-benzothiazol-6-yl)-N-(2,2,2-trifluoroethyl)ben-zamide] |
| < 10 | < 10 |  |  | CC1CCN(C(=O)c2ccc(-c3ccc4nc(C(C(=O)NCCS(N)(=O)=O)S(C)(=O)=O)sc4c3)cc2)CC1 (stereo not drawn) [Example B43, 2-(6-{4-[(4-methyl-1-piperidinyl)carbonyl]phen-yl}-1,3-benzothiazol-2-yl)-2-(methylsulfonyl)-N-(2-sulfamoylethyl)a-cetamide] |
| 148 | < 10 |  |  | CC(=O)Nc1ccc(-c2ccc3nc(C(C(=O)NCCS(N)(=O)=O)S(=O)(=O)Cc4ccccc4)sc3c2)cc1 (stereo not drawn) [Example B44, 2-(6-(4-acetamidophenyl)-1,3-benzothiazol-2-yl)-2-(benzylsulfonyl)-N-(2-sulfamoylethyl)acetamide] |
| 38 | < 10 |  |  | NS(=O)(=O)CCNC(=O)C(c1nc2ccc(-c3ccc(C(=O)NCC(F)(F)F)cc3)cc2s1)S(=O)(=O)CCC(F)(F)F (stereo not drawn) [Example B45, 4-(2-(2-oxo-2-((2-sulfamoylethyl)amino)-1-((3,3,3-trifluoropropyl)sul-fonyl)ethyl)-1,3-benzothiazol-6-yl)-N-(2,2,2-trifluoroethyl)ben-zamide] |
| 520 | < 10 |  |  | NS(=O)(=O)CCNC(=O)C(c1nc2ccc(-c3ccc(C(=O)NCCO)cc3)cc2s1)S(=O)(=O)CCC(F)(F)F (stereo not drawn) [Example B46, N-(2-hydroxyethyl)-4-(2-(2-oxo-2-((2-sulfamoylethyl)amino)-1-((3,3,3-trifluoropropyl)sul-fonyl)ethyl)-1,3-benzothiazol-6-yl)ben-zamide] |
| 35 | < 10 |  |  | CS(=O)(=O)C(C(=O)NCCS(N)(=O)=O)c1nc2ccc(-c3ccc(CCO)cc3)cc2s1 (stereo not drawn) [Example B47, 2-(6-(4-(2-hydroxyethyl)phenyl)-1,3-benzothiazol-2-yl)-2-(methylsulfonyl)-N-(2-sulfamoylethyl)acetamide] |
|  |  | > 62000 |  | CC(C)c1cc(CNC(=O)C(C)(C)c2nc3ccc(-c4ccccc4)cc3s2)on1 [Reference 2, N-((3-isopropylisoxazol-5-yl)methyl)-2-methyl-2-(6-phenylbenzo[d]thiazol-2-yl)propanamide, reference compound] |
